According to US20190224192A1, “Stable Pharmaceutical Composition of Vortioxetine Hydrobromide” (Cipla Limited, priority 2016, published 2019):
Counter-ions that a name gives are not always drawn.

Tests used:
[1] = solid state form stability (conversion of form on stability); assay type: physicochemical
From the text: WO 2016/062860 relates to a pharmaceutical composition comprising amorphous Vortioxetine hydrobromide, a process for the preparation thereof, use thereof and a method for stabilizing Vortioxetine hydrobromide in a pharmaceutical composition.
However, this technique is not desirable in cases where the melting point of the drug to be converted is very high. For the process to work, it is required that the drug undergoes complete melting, which would lead to complete conversion. The melting point of the drug Vortioxetine is very high, in order of 227-230 degrees. The normal temperatures that are employed in the laboratory is around 180 C, maximizing to 200 C. The HME in this case was attempted with Klucel and Kollidone VA 64. […] This could be attributed to the incomplete melting of the drug and thus incomplete form conversion.

[2] = cited from earlier work
[3] = in vitro dissolution of premix compared to beta form; assay type: physicochemical; conditions: unit assumed
From the text: FIG. 2: FIGS. 2a and 2b show dissolution data of a Vortioxetine hydrobromide premix according to the present invention compared to the beta form of Vortioxetine hydrobromide.
In one aspect, the present invention provides a Vortioxetine hydrobromide premix having stability and dissolution properties such that it can be easily formulated into pharmaceutically useful composition.

Row | SMILES | solid state form conversion on stability [1] | aqueous solubility [2] | in vitro dissolution ([3]; Time in min 15) | in vitro dissolution ([3]; Time in min 30) | in vitro dissolution ([3]; Time in min 60) | in vitro dissolution ([3]; Time in min 120) | in vitro dissolution ([3]; Time in min 240) | in vitro dissolution ([3]; Time in min 480) | in vitro dissolution ([3]; Time in min 600) | in vitro dissolution ([3]; Time in min 720)
1 | Cc1ccc(Sc2ccccc2N2CCNCC2)c(C)c1 [amorphous Vortioxetine hydrobromide, Vortioxetine hydrobromide] | gets converted to a more stable crystalline form |  |  |  |  |  |  |  |  | 
2 | Br.Cc1ccc(Sc2ccccc2N2CCNCC2)c(C)c1 [Beta Form, Vortioxetine hydrobromide] |  | about 1.2 mg/ml | 14% | 20% | 29% | 37% | 49% | 61% | 63% | 63%
